Entries after “also recorded” stand apart in the source; their conditions may differ.
How the values were obtained:
TNBC tumor = assay: Quantitative zymography (QZ) assay, patient-derived tumor sample; design: species or system human (patient-derived); conditions: 20 μg/mL, 37° C, 48 hours
Procedure: (§1) Protease activities in patient-derived tumor samples were evaluated using the quantitative zymography (QZ) assay. […] Tumor tissue samples from two head and neck cancer patients and one triple negative breast cancer (TNBC) patient were analyzed utilizing activatable antibodies of the present disclosure with the CM 6006 (SEQ ID NO: 7).
(§2) The protease activity in the tumor sections of 12 μm thickness was assessed. […] An equal volume of AF647-labeled c225 activatable antibodies prepared at 40 μg/mL in QZ buffer were then added directly onto the tissue containing the buffer to form a mixture and incubated at a final concentration of 20 μg/mL in a humidified chamber at 37° C. for 48 hours.
(§3) Following 48 hours of incubation, supernatants were collected from each incubated mixture and transferred into a well of a 96-well PCR plate for assay by capillary electrophoresis. Each supernatant sample was mixed with Pico Sample Buffer (Perkin Elmer) containing 2-beta-mercaptoethanol at four parts sample and one part of Pico Sample Buffer and then heated at 95° C. for 10 minutes. The composition of each supernatant sample was then assessed using the LabChip GXII Touch (Perkin Elmer) with the HT Pico Protein Express 100 protocol (Perkin Elmer). Protein Express Assay LabChips (Perkin Elmer #760499) were set up using the protocol of the Protein Pico Assay Reagent Kit (Perkin Elmer #760498).

head and neck tumor A = assay: as above; design: species or system human (patient-derived); conditions: 20 μg/mL, 37° C, 48 hours
Procedure: as §1, §2, §3

head and neck tumor B = assay: as above; design: species or system human (patient-derived); conditions: 20 μg/mL, 37° C, 48 hours
Procedure: as §1, §2, §3

MT-SP1 [1] = assay: Cleavability kinetics (kcat/KM) of CMs in activatable antibodies with MT-SP1; assay type: biochemical, human; conditions: role: substrate; compared to control CMs 2001 and 0001
plasmin = assay: In vitro cleavability of activatable antibodies by plasmin (capillary electrophoresis); assay type: biochemical, human; design: key to Cleavability (%) Plasmin (4 h): “—” indicates below limit of quantification; conditions: role: substrate; for Cleavability (%) Plasmin (4 h): 500 nM activatable antibody, 10 nM plasmin, 37° C; for extent of cleavage by plasmin vs control CM 2001, in words: 4 h, compared to control CM 2001
[2] = In vivo stability of activatable antibodies in mice (cleaved activatable antibody in plasma); conditions: 10 mg/kg intraperitoneal; for In Vivo % Activation (nu/nu, day 7): day 7, plasma; for in vivo stability vs control, in words: nu/nu mice, day 7, compared to control CM 2001
TMPRSS11 = assay: In vitro cleavability of activatable antibodies by TMPRSS11 (capillary electrophoresis); assay type: biochemical, human; conditions: role: substrate; for Cleavability (%) TMPRSS11 (4 h): 500 nM activatable antibody, 10 nM TMPRSS11D, 37° C, pH 7.4; for extent of cleavage by TMPRSS11 vs control CM 2001, in words: 4 h, compared to control CM 2001
MT-SP1 [3] = assay: In vitro cleavability of activatable antibodies by MT-SP1 (capillary electrophoresis); assay type: biochemical, human; conditions: role: substrate; for Cleavability (%) MT-SP1 (1.5h) / Cleavability (%) MT-SP1 (4 h): 500 nM activatable antibody, 37° C, pH 7.4; for Cleavability (%) MT-SP1 (1.5h): 10 nM MT-SP1, 1.5 h; for Cleavability (%) MT-SP1 (4 h): 10 nM MT-SP1, 4 h; for extent of cleavage by MT-SP1 (matriptase) vs control CM 2001, in words: compared to control CM 2001
[4] = test system: H292 (human lung cancer cell line) xenograft tumors; assay: Intra-tumoral activation assay in H292 xenograft tumors; assay type: in vivo, human tumor cells in female nu/nu mice; conditions: tumors collected 7 days after dosing, 9 mg/kg intraperitoneal
Procedure: (§4) In this study, H292 (human lung cancer-derived cell line) subcutaneous xenograft tumors in female nu/nu mice of 6-8 weeks of age were grown to an average volume of 117-215 mm^3. […] The mice were then randomized into groups of 8 mice each and each group was dosed intraperitoneally on day 1 with 9 mg/kg of the indicated test article.
Tumors were collected from the mice 7 days after dosing. The tumor tissue was lysed with immunoprecipitation buffer (Pierce) containing HALT protease inhibitor cocktail (Thermo Fisher) and EDTA and lysed using the Barocycler (Pressure Bioscience).

[5] = test system: human bone marrow aspirates; assay: In situ stability in human bone marrow aspirates; conditions: 20 μg/mL, 37° C, 21 or 24 hours, N=2 donors, normalized to CM 2001
Procedure: The study provided herein evaluates the in situ stability of activatable antibodies of the present disclosure with the CM 6006 (SEQ ID NO: 7) by human bone marrow aspirates. Fresh human bone marrow aspirates from healthy donors were purchased from Stemcell Technology Inc. (Catalog No. 70502) and AllCells Inc. and were processed to lyse red blood cells and washed 5 times with buffer or serum-free media. […] An equal volume of AF647-labeled c225 activatable antibodies prepared at 40 μg/mL in serum-free RPMI media were then added to form a mixture and incubated at a final concentration of 20 μg/mL at 37° C. for 21 or 24 hours. Cells were pelleted through centrifugation for 5 min at 300×g. Supernatants were collected from each incubated mixture and transferred into a well of a 96-well PCR plate for assay by capillary electrophoresis. Each supernatant sample was mixed with Pico Sample Buffer (Perkin Elmer) containing 2-beta-mercaptoethanol at four parts sample and one part of Pico Sample Buffer and then heated at 95° C. for 10 minutes. Substrate cleavage was measured by capillary electrophoresis using a LabChip® GXII Touch™ system (Perkin Elmer) with the HT Pico Protein Express 100 protocol (Perkin Elmer). Protein Express Assay LabChips (Perkin Elmer #760499) were set up using the protocol of the Protein Pico Assay Reagent Kit (Perkin Elmer #760498).

[6] = test system: H292 (human lung cancer cell line) xenograft tumors; assay: In vivo efficacy in mouse H292 xenograft model; design: species or system human tumor cells in female nu/nu mice; conditions: 9 mg/kg intraperitoneal on day 1; nu/nu mice
Procedure: The study provided herein evaluates the in vivo efficacy of activatable antibodies of the present disclosure with CM 6006 (SEQ ID NO: 7) using a mouse H292 (human lung cancer cell line) xenograft model.
as §4

Substance | light chain (LC) activation, in words (TNBC tumor) | light chain (LC) activation, in words (head and neck tumor A) | light chain (LC) activation, in words (head and neck tumor B) | cleavability from kcat/KM results vs control CMs, in words (MT-SP1 [1]) | Cleavability (%) Plasmin (4 h) (plasmin; pH 7.4) [%] | extent of cleavage by plasmin vs control CM 2001, in words (plasmin) | In Vivo % Activation (nu/nu, day 7) [2] [%] | in vivo stability vs control, in words [2] | Cleavability (%) TMPRSS11 (4 h) (TMPRSS11) [%] | extent of cleavage by TMPRSS11 vs control CM 2001, in words (TMPRSS11) | Cleavability (%) MT-SP1 (1.5h) (MT-SP1 [3]) [%] | Cleavability (%) MT-SP1 (4 h) (MT-SP1 [3]) [%] | extent of cleavage by MT-SP1 (matriptase) vs control CM 2001, in words (MT-SP1 [3]) | Cleavability (%) Plasmin (4 h) (plasmin; below limit of quantification) | intra-tumoral activation, in words [4] | resistance to cleavage in situ in bone marrow, in words [5] | in vivo efficacy (tumor volume), in words [6] | cleavability percentage for MT-SP1 (MT-SP1 [3]; 1.5 h, lower bound stated in text)
APRSALAHGLF [compound 5007, reference compound] | Comparable levels of LC activation | Comparable levels of LC activation | Comparable levels of LC activation |  |  |  |  |  |  |  |  |  |  |  |  |  |  | 
HQSRS [compound 6001] |  |  |  | higher cleavability by at least MT-SP1 than control CMs 2001 (SEQ ID NO: 78) and 0001 (SEQ ID NO: 77) | 11.1 | to a greater extent than the control CM 2001 | 24.2 | higher in vivo stability than the activatable antibody with the control CM 2001 | 100.0 | to a greater extent than the control CM 2001 | 56.9 | 100.0 | substantially cleaved by MT-SP1; also recorded: to a greater extent than the control CM 2001 |  |  |  |  | 
ISSGLLSGRSDNH [compound 2001, reference compound] |  |  |  |  |  |  | 32.1 |  | 9.8 |  | 10.9 | 19.4 |  | — |  |  |  | 
LSGRSDNH [compound 0001, reference compound] |  |  |  |  |  |  | 20 |  |  |  |  |  |  |  |  |  |  | 
SDHQSRS [compound 6006] | Increased LC activation is observed in the activatable antibody with CM 6006 (SEQ ID NO: 7) compared to the activatable antibody with the control CM 3001; also recorded: Comparable levels of LC activation | Increased LC activation is observed in the activatable antibody with CM 6006 (SEQ ID NO: 7) compared to the activatable antibody with the control CM 3001; also recorded: Comparable levels of LC activation | Comparable levels of LC activation |  | 15.1 | to a greater extent than the control CM 2001 | 18.4 | higher in vivo stability than the activatable antibody with the control CM 2001 | 100.0 | to a greater extent than the control CM 2001 | 33.1 | 74.1 | substantially cleaved by MT-SP1; also recorded: to a greater extent than the control CM 2001 |  | cleaved by proteases present in the tumor resulting in activation of the antibody | resistance to cleavage in situ in the bone marrow as compared to activatable antibodies with control CMs 2001 (SEQ ID NO: 78), 5007 (APRSALAHGLE; SEQ ID NO: 80) (WO2020118109) and 3001 | in vivo efficacy that is comparable with the activatable antibody with the control CM 2001 (SEQ ID NO: 78) and similar to cetuximab | greater than 30%

— patent US20260327317A1, “PROTEASE-CLEAVABLE MOIETIES AND METHODS OF USE THEREOF” (CytomX Therapeutics, Inc., priority 2022, published 2026)
